Measured values as given in patent US20220054496A1, “MODULATION OF TRF1 FOR BRAIN CANCER TREATMENT” (Fundación Del Sector Público Estatal Centro Nacional De …, priority 2018, published 2022).
“Also recorded” adds a separate entry of the source.

Columns and labels:
[1] = system: TRF1; experiment: TRF1 nuclear immunofluorescence (TRF1 foci) in U251 cells; assay type: cell-based, human; settings: 10 μM, 24 h or 48 hr
Protocol: For immunofluorescence analyses, cells were plated in a proper density in cell culture μCLEAR plates (Greiner) and fixed in 4% formaldehyde in PBS. Cells were permeabilized with 0.25% Triton in PBS and blocked with 5% BSA in PBS. Tissue sections were fixed in 10% buffered formalin (Sigma) and embedded in paraffin. After deparaffinization and citrate antigen retrieval, sections were permeabilized with 0.5% Triton in PBS and blocked with 1% BSA and 10% Australian FBS ([…]) in PBS. The antibodies were applied overnight in antibody diluents with background reducing agents (Invitrogen).
Immunofluorescence images were obtained using a confocal ultraspectral microscope (Leica TCS-SP5) or the Opera High Content Screening (HCS) system (Perkin Elmer). Quantifications were performed with Definiens software.
(§1) For in vitro studies, ETP-47228 ETP-47037 and ETP-50946 were dissolved in DMSO at a final concentration of 10 or 5 mM. Cells were treated at a concentration of 10 μM for 24 h or 48 hr.
(§2) To address whether these small molecules could represent a new therapeutic strategy for the treatment of GBM, the present inventors first tested the ability of the three independent TRF1 inhibitory molecules (ETP-47228, ETP-47037 and ETP-50946) to downregulate TRF1 protein levels in the U251 human GBM cell line.

[2] = system: TRF1; experiment: Western blot of total TRF1 protein in U251 cells; assay type: cell-based, human; settings: 10 μM, 24 h or 48 hr
Protocol: Nuclear protein extracts were obtained using Nuclear Cytosolic Fractionation Kit (Biovision) and protein concentration was determined using the Bio-Rad DC Protein Assay (Bio-Rad). Up to 15 μg of protein per extract were separated in SDS-polyacrylamide gels by electrophoresis. After protein transfer onto nitrocellulose membrane (Whatman), the membranes were incubated with the indicated antibodies. Antibody binding was detected after incubation with a secondary antibody coupled to horseradish peroxidase using chemiluminescence with ECL detection KIT (GE Healthcare)
Quantifications: Protein-band intensities were measured with ImageJ software and normalized against the loading control.
as §1, §2

[3] = system: U251 cells; experiment: Neurosphere formation assay in U251 cells; assay type: cell-based, human; settings: U251 in NSC media; seven days; vs DMSO
Protocol: (§3) Spheres were dissociated into single cells and seeded at a density of 50, 100, 200 and 400 cells/well in a 96 well plate. Neurosphere number was assessed after 7 days. Pictures were taken using Nikon Eclipse Ti-U microscope and neurosphere diameter was measured using NIS Elements BR software.
Finally, the present inventors checked if the three chemical compounds had the ability to reduce sternness in these cells. They cultured U251 cells with NSC media in order to obtain a suspension culture enriched in stem cells. The inventors performed a sphere formation assay with these cells treated with ETP-47228, ETP-47037 and ETP-50946 or DMSO for seven days. […] Of note, all these effects recapitulated what the present inventors observed with Trf1 genetic downregulation (See 2.2).

[4] = system: h676 GSCs; experiment: Sphere formation assay in patient-derived h676 GSCs; assay type: cell-based, human; settings: vs untreated controls
Protocol: (§4) FIG. 48. […] (A) Dose-response curves of the h676 GSCs treated 7 days with the indicated compounds. (B) Dose-response curves of the h543 GSCs treated 7 days with the indicated compounds. Data are represented as mean±SD.
as §3
(§5) Given the promising results the present inventors obtained with the TRF1 chemical modulators in the U251 GBM cell line, the present inventors next set to address the effects of these compounds in two independent patient-derived primary GSCs (h543 and h676) cultures.
(§6) Next, the present inventors set to address whether the different compounds were able to block sphere formation in the h676 and h543 GSCs.

[5] = system: h543 GSCs; experiment: Sphere formation assay in patient-derived h543 GSCs; assay type: cell-based, human; settings: vs untreated controls
Protocol: as §4, §3, §5, §6

[6] = system: h676 GSCs xenografts; experiment: Subcutaneous xenograft of patient-derived h676 GSCs in nude mice; assay type: in vivo
Protocol: (§7) h676 and h543 patient-derived GSCs were dissociated using a 200 μl pipet and resuspended in NeuroCult medium and matrigel in a 1:1 ratio in a concentration of 1000 cell/μl. Nude mice (athymic Nude-Foxn1^nu/nu from Harlan) were injected subcutaneously with 100 μl of the cell preparation. ETP-47037 (or vehicle) was orally administrated at a concentration of 75 mg/kg 5 days per week (see also section 8), starting one week after cell injection. The vehicle consisted in 10% N-methyl-2-pyrrolidone (NMP, Sigma Aldrich) and 90% poly ethylene glycol (PEG, Sigma Aldrich). Mice were weighted and tumors were measured every 2-4 days. Tumor area was determined by the following equation: A=π*(a/2)*(b/2), were a and b are tumor length and width respectively.
(§8) For oral administration, ETP-47037 was dissolved in 10% N-methyl-2-pyrrolidone (NMP, Sigma Aldrich) and 90% polyethylene glycol (PEG, Sigma Aldrich) at a concentration of 75 mg/kg.
Next, the present inventors set to address whether TRF1 chemical inhibition was able to block tumor growth in vivo. […] Thus, the two independent primary GSCs (h676 and h543) were injected subcutaneously into nude mice. One week after GSC injection, mice received oral administration of the vehicle (NMP 10%, PEG 90%) as placebo or the ETP-47037 TRF1 inhibitor 5 days/week, every week until human endpoint, and tumors were continuously followed-up by caliper measurements (FIG. 42A).

[7] = system: h543 GSCs xenografts; experiment: Subcutaneous xenograft of patient-derived h543 GSCs in nude mice; assay type: in vivo; settings: oral 75 mg/kg 5 days/week, vs vehicle
Protocol: as §7, §8
(§9) Next, the present inventors set to address whether TRF1 chemical inhibition was able to block tumor growth in vivo. […] Thus, the two independent primary GSCs (h676 and h543) were injected subcutaneously into nude mice. […]

[8] = Crossing of the brain blood barrier
[9] = Sickness, morbidity and pathologies of xenograft mice after long-term treatment; assay type: in vivo
Protocol: as §7
Histopathological analysis was performed in paraffin embedded tissue sections stained with hematoxylin and eosin (H&E), with the assistance of the CNIO Histopathology Unit and Juana María Flores from the Universidad Complutense de Madrid (UCM).
as §9

[10] = system: K-Ras^G12V-induced lung tumors; settings: p53-deficient background; cited from earlier work
[11] = GSC-derived xenografts, vs vehicle

crossing the brain blood barrier [8]: not crossing the brain blood barrier
SMILES: CS(=O)(=O)N1CCN(Cc2cc3c(N4CCOCC4)nc(-c4cnc(N)nc4)cn3n2)CC1 [ETP-47037]
TRF1 foci (immunofluorescence) [1]: effectively reduced
total TRF1 protein levels (western blot) [2]: effectively reduced
diameter of neurospheres [3]: strong reduction
number of neurospheres [3]: strong reduction
diameter of spheres [4]: significant drastic reduction
number of spheres [4]: significant drastic reduction
diameter of spheres [5]: significant drastic reduction
number of spheres [5]: significant drastic reduction
proliferation marker Ki67-positive cells in tumors [6, 11]: reduces proliferation
γH2AX DNA damage marker positive cells in tumors [6, 11]: induces DNA damage
tumor areas (caliper follow-up) ([6]; h676 xenograft, oral 75 mg/kg 5 days/week, vs vehicle): drastic reduction
decrease of TRF1 protein levels in tumors (immunofluorescence) ([6]; h676 xenograft, vs placebo): 80%
tumor size post-mortem ([6]; h676 xenograft, vs placebo): striking decrease
tumor weight post-mortem ([6]; h676 xenograft, vs placebo): striking decrease
histological analysis of the tumors ([6]; xenografts after treatment): decreased cellularity in the tumors, together with necrotic areas, apoptotic bodies, compacted chromatin and fragmented DNA
tumor areas (caliper follow-up) [7]: drastic reduction
Mice pathologies after long-term treatment ([9]; one line per mouse (Mice 1-4)): Mice 3: dermatitis; also recorded: Mice 4: dermatitis; also recorded: Mice 2: dermatitis
signs of sickness or morbidity ([9]; treated cohorts compared to the placebo group): did not detect any signs of sickness or morbidity
growth of already established lung adenocarcinomas [10]: effectively impair the growth
